Paper PMC12165799, “Antimicrobial peptide developed with machine learning sequence optimization targets drug resistant Staphylococcus aureus in mice” (The Journal of Clinical Investigation, 2025)

Legend:
[1] = test system: S. aureus MW2 (MRSA) exponential and persister cells; experiment: S. aureus persister cell and time-kill assays (MW2); format: cell-based, Staphylococcus aureus; conditions: approximately 1 × 10^8 CFU, 10 × MIC
Experimental: 305 Minimal inhibitory concentration (MIC) assay
We made serial dilutions of 10×
We determined the MIC using OD600
Accordingly, we added 150 mM NaCl,
319 established protocol (5).
323 aureus VRS1) in PBS. To assess the killing kinetics of CIT-8 in persister cells, we added 1 ml of
324 cell suspension to the wells of a 2-ml deep-well assay block (Cat no. 3960, Corning, NY, USA)
We also included ciprofloxacin (at 10 μg/ml) for S.
326 aureus MW2 and linezolid (100 μg/ml) for S. aureus VRS1 as antibiotic controls. Additionally,
327 we included bithionol (at 10 μg/ml) as a positive control, known for its ability to kill stationary
328 phase persister cells (6). We incubated the plates at 37°C, with shaking at 225 rpm. At specific
329 times (0, 15, 30, 60, and 120 min), we collected 10 μl samples, diluted them serially, and then
330 plated them on tryptic soy agar (TSA) (BD Difco, NJ, USA) plates. We incubated the TSA plates
331 for 18 hours at 37°C for colony counting. We performed these experiments in duplicate. As a
332 comparison, we prepared the exponential cells of S. aureus MW2 and VRS1 in PBS and analyzed
333 their killing kinetics in the same manner as described for persister cells.

[2] = test system: S. aureus MW2 established biofilm; experiment: Fluorescence microscopy of established biofilms, live/dead staining; format: cell-based, Staphylococcus aureus; conditions: 32 μg/mL, SYTO9 / propidium iodide
Experimental: 369 aureus MW2 (adjusted to 1 × 10^6 CFU/ml) in TSB medium (supplemented with 0.2% glucose)
370 from overnight grown cultures. We added 100 µl of bacterial culture to flat-bottomed 96-well
371 polystyrene microtiter plates (Cat no. 3595, Corning, NY, USA). We then incubated the plates at
372 37°C for 24 hours in static conditions to allow biofilm formation. After incubation, we carefully
373 pipetted out the TSB medium and washed the wells with PBS (Gibco, MD, USA) to remove
374 loosely attached planktonic cells. We treated the established biofilms in each well with 10 µl of
375 serially diluted 10× peptide solution, followed by the addition of 90 μl TSB medium
376 (supplemented with 0.2% glucose). We incubated the plates for another 24 h at 37°C before
377 processing biomass and live-cell contents. We calculated the concentration of peptide that disrupts
378 50% of established biofilms (MBEC50).
380 Fluorescence microscopy of CIT-8-treated S. aureus MW2 established biofilms
381 We prepared exponential phase cultures of S. aureus MW2 and adjusted the bacterial count
382 to 1 × 10^6 CFU/ml in fresh TSB medium. To establish biofilms, we added 200 µl of the bacterial
383 culture to the chambers of Millicell EZ Slides (Millipore Sigma, MA, USA) and maintained them
384 at 37°C for 24 hours under static conditions (8). After incubation, we carefully removed the TSB […]
We calculated the percent hemolysis, […]

## H-GLFKVIKKLLKVI-NH2 [CIT-8]
[1]
  Time to complete eradication of MRSA persister cells: ≤ 30 min
[2]
  Live/dead staining of established biofilm: high proportion of dead cells
